Five compounds from ChEMBL document CHEMBL4011630 (J Med Chem, 2017) can be followed below.

pIC50: −log10 of the molar value. Where a SMILES comes first, the peptide text is derived from it. Bridges are numbered along the chain shown (N, C = ends). [ ]: non-standard residue; d: D form. hMet = CSCCC[C@H](N)C(=O)O Some results are limits rather than exact numbers.

Assay [1] has as its target T1, Neuronal acetylcholine receptor; alpha3/beta4 (Rattus norvegicus, UniProt P04757+P12392). In words: Antagonist activity at rat alpha3beta4 nACHR expressed in xenopous laevis oocyte assessed as inhibition of ACh induced channel current after 5 mins at -70 mV holding potential by two electrode voltage clamp method.
Assay [2] concerns the target T2, Nicotinic acetylcholine receptor alpha6/alpha3/beta4 (Rattus norvegicus, UniProt P04757+P12392+P43143). Briefly: Antagonist activity at rat alpha6/alpha3beta4 nACHR expressed in xenopous laevis oocyte assessed as inhibition of ACh induced channel current after 5 mins at -70 mV holding potential by two electrode voltage clamp method.
For assay [3], the target named is T2, Nicotinic acetylcholine receptor alpha6/alpha3/beta4. Briefly: Antagonist activity at rat alpha6/alpha3beta4 nACHR expressed in xenopous laevis oocyte assessed as inhibition of ACh induced channel current after 6 to 10 mins at -70 mV holding potential by two electrode voltage clamp method.
Assay [4] deals with T1, Neuronal acetylcholine receptor; alpha3/beta4. In words: Antagonist activity at rat alpha3beta4 nACHR expressed in xenopous laevis oocyte assessed as inhibition of ACh induced channel current after 6 to 10 mins at -70 mV holding potential by two electrode voltage clamp method.
For the next assay, the species on record is Rattus norvegicus. In words: Selectivity ratio of IC50 for rat alpha6/alpha3beta4 nACHR expressed in xenopous laevis oocyte after 6 to 10 mins to IC50 for rat alpha3beta4 nACHR expressed in xenopous laevis oocyte after 6 to 10 mins.

T1 sequence (P04757 whole entry): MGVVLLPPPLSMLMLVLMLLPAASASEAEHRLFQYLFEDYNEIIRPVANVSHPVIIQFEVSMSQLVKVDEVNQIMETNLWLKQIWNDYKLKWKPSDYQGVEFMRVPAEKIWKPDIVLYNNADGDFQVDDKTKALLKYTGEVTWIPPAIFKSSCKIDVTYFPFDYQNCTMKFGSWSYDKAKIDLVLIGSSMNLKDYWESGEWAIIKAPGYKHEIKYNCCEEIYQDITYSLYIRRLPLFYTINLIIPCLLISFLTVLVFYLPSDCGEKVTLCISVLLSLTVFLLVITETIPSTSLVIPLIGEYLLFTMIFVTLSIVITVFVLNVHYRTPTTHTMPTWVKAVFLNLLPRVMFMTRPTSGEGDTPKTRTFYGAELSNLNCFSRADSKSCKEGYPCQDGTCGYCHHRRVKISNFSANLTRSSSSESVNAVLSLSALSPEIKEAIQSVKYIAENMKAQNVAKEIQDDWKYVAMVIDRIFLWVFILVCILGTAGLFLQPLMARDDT
T1 sequence (P12392 whole entry): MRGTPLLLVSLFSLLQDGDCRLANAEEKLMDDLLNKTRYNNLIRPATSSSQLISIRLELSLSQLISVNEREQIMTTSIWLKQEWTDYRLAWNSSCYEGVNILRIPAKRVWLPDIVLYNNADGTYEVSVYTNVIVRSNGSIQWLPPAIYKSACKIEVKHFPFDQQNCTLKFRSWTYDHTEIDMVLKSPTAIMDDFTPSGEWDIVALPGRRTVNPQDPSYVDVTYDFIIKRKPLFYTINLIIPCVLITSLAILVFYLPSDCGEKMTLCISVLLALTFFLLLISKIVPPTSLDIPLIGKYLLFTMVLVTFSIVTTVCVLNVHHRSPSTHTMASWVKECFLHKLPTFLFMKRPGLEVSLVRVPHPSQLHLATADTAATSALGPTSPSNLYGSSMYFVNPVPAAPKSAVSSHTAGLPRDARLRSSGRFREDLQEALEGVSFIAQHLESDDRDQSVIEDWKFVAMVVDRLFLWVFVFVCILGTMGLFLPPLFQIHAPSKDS
T2 sequence (P04757 whole entry): as the sequence (P04757 whole entry) above
T2 sequence (P12392 whole entry): as the sequence (P12392 whole entry) above
T2 sequence (P43143 whole entry): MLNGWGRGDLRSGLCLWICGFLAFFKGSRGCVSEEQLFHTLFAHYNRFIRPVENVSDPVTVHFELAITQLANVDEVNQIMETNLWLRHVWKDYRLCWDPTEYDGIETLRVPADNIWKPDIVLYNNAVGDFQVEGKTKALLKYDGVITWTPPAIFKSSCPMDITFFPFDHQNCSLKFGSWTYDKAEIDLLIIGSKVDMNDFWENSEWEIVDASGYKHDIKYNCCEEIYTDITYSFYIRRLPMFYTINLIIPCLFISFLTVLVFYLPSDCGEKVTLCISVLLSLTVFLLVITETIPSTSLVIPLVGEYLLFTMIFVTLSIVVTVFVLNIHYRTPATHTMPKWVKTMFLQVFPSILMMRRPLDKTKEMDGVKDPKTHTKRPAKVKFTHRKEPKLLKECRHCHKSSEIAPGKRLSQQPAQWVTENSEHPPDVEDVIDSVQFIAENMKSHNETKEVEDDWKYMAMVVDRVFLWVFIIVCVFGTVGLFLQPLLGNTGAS

Regarding `CC[C@H](C)[C@@H]1NC(=O)[C@@H]2CCCN2C(=O)[C@H](CO)NC(=O)[C@H](CCCSC)NC(=O)[C@H](C)NC(=O)[C@H](CO)NC(=O)[C@@H]2CSSC[C@H](NC(=O)CN)C(=O)N[C@@H](CSSC[C@@H](C(N)=O)NC1=O)C(=O)N[C@@H](CO)C(=O)N[C@@H](Cc1cnc[nH]1)C(=O)N1CCC[C@H]1C(=O)N[C@@H](C)C(=O)N2` (H-GCCSHPACSA[hMet]SPIC-NH2; disulfide 2-8, 3-15), the pIC50 in assay [1] and in assay [2] was under 5.00 throughout.

Turning to `CC[C@H](C)[C@@H]1NC(=O)[C@H](C)NC(=O)[C@H](C)NC(=O)[C@@H]2CSSC[C@H](NC(=O)CN)C(=O)N[C@@H](CSSC[C@@H](C(N)=O)NC(=O)[C@H]([C@@H](C)CC)NC(=O)[C@@H]3CCCN3C(=O)[C@H](CO)NC1=O)C(=O)N[C@@H](CO)C(=O)N[C@@H](Cc1cnc[nH]1)C(=O)N1CCC[C@H]1C(=O)N[C@@H](C(C)C)C(=O)N2` (H-GCCSHPVCAAISPIC-NH2; disulfide 2-8, 3-15), the pIC50 in assay [1] was 7.51; in assay [2] it was 7.00.

For the compound `CC[C@H](C)[C@@H]1NC(=O)[C@@H]2CCCN2C(=O)[C@H](C)NC(=O)[C@H](CCCSC)NC(=O)[C@H](C)NC(=O)[C@H](CO)NC(=O)[C@@H]2CSSC[C@H](NC(=O)CN)C(=O)N[C@@H](CSSC[C@@H](C(N)=O)NC1=O)C(=O)N[C@@H](CO)C(=O)N[C@@H](Cc1cnc[nH]1)C(=O)N1CCC[C@H]1C(=O)N[C@@H](C(C)C)C(=O)N2` (H-GCCSHPVCSA[hMet]APIC-NH2; disulfide 2-8, 3-15), the pIC50 was 7.76 in assay [1] and 7.41 in assay [2].

Consider `CC[C@H](C)[C@@H]1NC(=O)[C@H](CCC(N)=O)NC(=O)[C@@H]2CCCN2C(=O)[C@H](CC(N)=O)NC(=O)[C@H](Cc2cnc[nH]2)NC(=O)[C@H](C(C)C)NC(=O)[C@H]([C@@H](C)O)NC(=O)[C@@H]2CSSC[C@H](NC(=O)[C@@H]3CCCN3C(=O)[C@H](CC(=O)O)NC(=O)[C@@H](N)CCCN=C(N)N)C(=O)N[C@@H](CSSC[C@@H](C(N)=O)NC1=O)C(=O)N[C@@H](CO)C(=O)N[C@@H](CC(N)=O)C(=O)N1CCC[C@H]1C(=O)N[C@@H](C(C)C)C(=O)N2` (H-RDPCCSNPVCTVHNPQIC-NH2; disulfide 4-10, 5-18), for which the pIC50 was 7.52 in assay [3] and 6.29 in assay [4].

As for `CC[C@H](C)[C@@H]1NC(=O)[C@H](CCC(N)=O)NC(=O)[C@@H]2CCCN2C(=O)[C@H](CC(N)=O)NC(=O)[C@H](Cc2cnc[nH]2)NC(=O)[C@H](C(C)C)NC(=O)[C@H]([C@@H](C)O)NC(=O)[C@@H]2CSSC[C@H](NC(=O)[C@@H]3CCCN3C(=O)[C@H](CC(=O)O)NC(=O)[C@@H](N)CCCNC(=N)N)C(=O)N[C@@H](CSSC[C@@H](C(N)=O)NC1=O)C(=O)N[C@@H](CO)C(=O)N[C@@H](CC(N)=O)C(=O)N1CCC[C@H]1C(=O)N[C@@H](C(C)C)C(=O)N2` (H-RDPCCSNPVCTVHNPQIC-NH2; disulfide 4-10, 5-18), the Ratio IC50 in the assay listed under Rattus norvegicus stood at 0.058.
